The source of these data is PMC11510342, “Synthesis, Characterization, Bioavailability and Antimicrobial Studies of Cefuroxime-Based Organic Salts and Ionic Liquids” (Pharmaceutics, 2024).

Series [1] in a line: Water solubility at 37 °C by consecutive addition of water until full dissolution. In kind it is physicochemical. How it is done: The solubility of the prepared cefuroxime OSILs was determined by adding known volumes of water consecutively to a certain amount of CFX-OSILs at 37 °C until full dissolution was observed. Figure 3 presents the maximum water solubility values of the prepared CFX-OSILs.

Series [2] relates to Pseudomonas aeruginosa (ATCC 27853). The series can be described thus: Antimicrobial activity, growth inhibition (OD 600 nm). As to conditions: for IC50: read-out: IC50 P. aeruginosa. In kind it is cell-based.
Description: (§1) The antimicrobial activity of compounds was evaluated against Bacillus subtilis (ATCC 6633), Pseudomonas aeruginosa (ATCC 27853) and Escherichia coli (ATCC 25922) grown in Lysogeny broth (Sigma, Darmstadt, Germany).
For series [3], the system named is Escherichia coli (ATCC 25922). Described as above. In kind it is cell-based. The note with it: for IC50: read-out: IC50 E. coli.
Description: as §1
The subject of series [4] is Bacillus subtilis (ATCC 6633). The series is described as above. The format is cell-based. The note with it: for IC50: read-out: IC50 B. subtilis.
Description: as §1
Another series deals with 3T3 murine fibroblasts. The series can be described thus: Cytotoxicity on 3T3 cells (MTT assay). The format is cell-based. The note with it: 24 h; for IC50: read-out: IC50 for toxicity on 3T3 murine fibroblasts; for Toxicity to 3T3 murine fibroblasts compared with the original drug (CFX): 100 µM.
The nature of series [5]: Octanol-water partition studies (Kow). In kind it is physicochemical.
The conditions of series [6]: cited from earlier work.
[7] abbreviates: Pseudomonas aeruginosa, ATCC27853, 6 h, 0.03–100 µM, interval in brackets.
Setting [8] is: Escherichia coli, ATCC25922, 6 h, 0.03–100 µM, interval in brackets.
The mark [9] stands for this setting: Bacillus subtilis, ATCC6633, 6 h, 0.03–100 µM, interval in brackets.
Where [10] appears, read: Mus musculus, Fibroblast, MTT, 1–100 µM.
Where [11] appears, read: 6 h, 0.03–100 µM, interval in brackets.

SMILES strings stand for the structures. Like-named read-outs stand apart in the source and are kept apart here.

Description for 3T3 murine fibroblasts: Cytotoxic activities were evaluated on 3T3 cells previously acquired from Leibniz Institute DSMZ, Germany biobank (ACC173). Cells were cultured in Dulbecco’s Modified Eagle’s medium: Nutrient Mix F-12 (DMEM/F-12) (Merck, Darmstadt, Germany) supplemented with 10% fetal bovine serum (Gibco, Grand Island, NY, USA), 100 IU/mL penicillin and 100 μg/mL streptomycin (Sigma, St. Louis, MO, USA). For subculture, 3T3 cells were dissociated using trypsin-EDTA (Sigma, USA) with a split 1:5 ratio and seeded into Petri dishes with 25 cm^2 of growth area. Culture medium was replaced every 2 days until cells reached total confluence after 3–5 days of initial seeding. Cells were maintained in a humidified atmosphere with 5% CO2 at 37 °C. The effects on 3T3 cells’ viability were evaluated after cells reached total confluence. […] The effects were estimated via MTT (Sigma, St. Louis, MO, USA) assays as a cellular metabolic activity colorimetric analysis. Results were expressed in percentage of control (%).

By solubility is commonly meant the dissolved amount per volume that the medium holds. The low end stands for a poorly soluble substance, the high end for a readily soluble substance. What is called IC50 is the concentration that gives 50% inhibition. `CO/N=C(\C(=O)N[C@@H]1C(=O)N2C(C(=O)O)=C(COC(N)=O)CS[C@H]12)c1ccco1` [CFX, Cefuroxime] had a solubility in series [1] (water, 37 °C) below 700 µg/mL. In addition, the IC50 in series [2] (setting [7]) is 0.55 µM; in series [3] (setting [8]), 6.42 µM; in series [4] (setting [9]), 0.95 µM; with 3T3 murine fibroblasts (setting [10]), above 100 µM.
As to `CCCCCC[n+]1ccccc1` [[C6Py]Br, reference compound], the IC50 (in series [2] (setting [7]); in series [3] (setting [8]); in series [4] (setting [9]); with 3T3 murine fibroblasts (setting [10])) was above 100 µM in each case.
For the compound `CCCCCC[n+]1ccccc1.CO/N=C(\C(=O)N[C@@H]1C(=O)N2C(C(=O)[O-])=C(COC(N)=O)CS[C@H]12)c1ccco1` [[C6Py][CFX]], the IC50 in series [2] (setting [11]) is 3.99 µM; in series [3] (setting [11]), 26.8 µM; in series [4] (setting [11]) it was 8.85 µM; with 3T3 murine fibroblasts (MTT, 1–100 µM), above 100 µM. Also, in the series with 3T3 murine fibroblasts (MTT), the “Toxicity to 3T3 murine fibroblasts compared with the original drug (CFX)” value (“Toxicity … compared with the original drug (CFX)” below) is listed as “no additional detrimental effect”.
As to `CCCCCCCCCC[n+]1ccccc1` [[C10Py]Br, reference compound], the IC50 is 95.5 µM in series [2] (setting [7]), above 100 µM in series [3] (setting [8]), 80.9 µM in series [4] (setting [9]) and 98 µM in the series on 3T3 murine fibroblasts (setting [10]).
On to `CCCCCCCCCC[n+]1ccccc1.CO/N=C(\C(=O)N[C@@H]1C(=O)N2C(C(=O)[O-])=C(COC(N)=O)CS[C@H]12)c1ccco1` [[C10Py][CFX]], for which, in series [5], the “Kow in comparison with the original drug (CFX)” value is “approximately four-times greater”. Moreover, the “Increase in water solubility relative to free CFX” value in series [1] was above 7.7 fold. This compound also yielded a Water solubility in series [1] of 5400 µg/mL. Further, the IC50 amounted to 16.6 µM in series [2] (setting [11]); 90.3 µM in series [3] (setting [11]); 23 µM in series [4] (setting [11]); 62.5 µM with 3T3 murine fibroblasts (MTT, 1–100 µM). Moreover, the “Toxicity … compared with the original drug (CFX)” value in the series with 3T3 murine fibroblasts (MTT) is “more toxic”. The “Relative toxicity on 3T3 cells (comparison of IC50 values)” value with 3T3 murine fibroblasts (MTT) was “approximately five-times less toxic”.
`CCCCCCCCCCCCCCCC[n+]1ccn(C)c1` [[C16MIM]Br, reference compound]: the half-inhibitory concentration (IC50) in series [2] (setting [7]) came out at 4.81 µM; in series [3] (setting [8]), 11.3 µM; in series [4] (setting [9]) it was 5.19 µM; with 3T3 murine fibroblasts (setting [10]), 13.3 µM.
Turning to `CCCCCCCCCCCCCCCC[n+]1ccn(C)c1.CO/N=C(\C(=O)N[C@@H]1C(=O)N2C(C(=O)[O-])=C(COC(N)=O)CS[C@H]12)c1ccco1` [[C16MIM][CFX]], the “Octanol-water partition (Kow)” value in series [5] was 1.7. The Water solubility in series [1] amounted to 11000 µg/mL. Further, the IC50 in series [2] (setting [11]) is 4.02 µM; in series [3] (setting [11]) it was 9.23 µM; in series [4] (setting [11]) it was 2.65 µM; in the series on 3T3 murine fibroblasts (MTT, 1–100 µM), 13.9 µM. In addition, the “Toxicity … compared with the original drug (CFX)” value with 3T3 murine fibroblasts (MTT) is on record as “more toxic”.
In the case of `CCCCCCCCCCCCCCCC[n+]1ccccc1.CO/N=C(\C(=O)N[C@H]1C(=O)N2C(C(=O)[O-])=C(COC(N)=O)CS[C@@H]12)c1ccco1` [[C16Py][CFX]], in series [5], the “Octanol-water partition (Kow)” value worked out at 2.5. For the same compound, the “Increase in water solubility relative to free CFX” value in series [1] is above 7.7 fold. In series [1], this compound showed a Water solubility of 5500 µg/mL. Also, the concentration for half-maximal inhibition (IC50) in series [2] (setting [11]) is 4.54 µM; in series [3] (setting [11]), 9.66 µM; in series [4] (setting [11]), 5.08 µM; in the series with 3T3 murine fibroblasts (MTT, 1–100 µM), 11.7 µM. The “Toxicity … compared with the original drug (CFX)” value in the series with 3T3 murine fibroblasts (MTT) is “more toxic”.
As for `c1cc[n+](CCCCCCCCCC[n+]2ccccc2)cc1` [[PyC10Py]Br2, decylbispyridinium dibromide, reference compound], the IC50 in series [2] (Pseudomonas aeruginosa, ATCC27853, 6 h) was above 100 µM; in series [3] (Escherichia coli, ATCC25922, 6 h) it was above 100 µM; in series [4] (Bacillus subtilis, ATCC6633, 6 h), above 100 µM; with 3T3 murine fibroblasts (Mus musculus, Fibroblast), above 100 µM.
Take `CO/N=C(\C(=O)N[C@@H]1C(=O)N2C(C(=O)[O-])=C(COC(N)=O)CS[C@H]12)c1ccco1.CO/N=C(\C(=O)N[C@@H]1C(=O)N2C(C(=O)[O-])=C(COC(N)=O)CS[C@H]12)c1ccco1.c1cc[n+](CCCCCCCCCC[n+]2ccccc2)cc1` [[PyC10Py][CFX]2]: the Water solubility in series [1] (water, 37 °C) came to 140000 µg/mL. In addition, the “Antimicrobial activity against P. aeruginosa compared with CFX” value in series [2] is “comparable activity to CFX”. Moreover, the IC50 in series [2] (setting [11]) is 0.66 µM; in series [3] (setting [11]) it was 4.92 µM; in series [4] (setting [11]), 0.85 µM; in the series on 3T3 murine fibroblasts (MTT, 1–100 µM), above 100 µM. In addition, the “Antimicrobial activity against E. coli compared with CFX” value in series [3] (times more effective than CFX) stood at 1.3. Besides, the “Antimicrobial activity against B. subtilis compared with CFX” value in series [4] is reported as “comparable activity to CFX”. In the series with 3T3 murine fibroblasts (MTT), the “Toxicity … compared with the original drug (CFX)” value is “no additional detrimental effect”.
Take `CO/N=C(\C(=O)N[C@@H]1C(=O)N2C(C(=O)OC(C)OC(C)=O)=C(COC(N)=O)CS[C@H]12)c1ccco1` (some centres unmarked) [cefuroxime axetil]: the “Time of peak concentration in serum” value in series [6] (after oral administration) was “approximately 2 h”.
For `CO/N=C(\C(=O)N[C@@H]1C(=O)N2C(C(=O)O)=C(COC(N)=O)CS[C@H]12)c1ccco1` [cefuroxime sodium], the Serum concentration in series [6] (single 500 mg intramuscular dose, for a period of 2.5 to 3 h) is 8000 ng/mL. The Half-life in series [6] (single 500 mg intramuscular dose) is 1.17 h.
